Reference: patent US20150329519A1, “Formulations Comprising Lipoyl Compounds” (Ischemix, LLC, priority 2014, published 2015)

Columns and labels:
[1] = Polymer content by HPLC area counts after formulation or salt formation; assay type: physicochemical
Description: The purity of a lipoyl compound was analyzed by reversed-phase high performance liquid chromatography (HPLC). Mobile phase A was 0.1% triflouroacetic acid (TFA) in H2O and mobile phase B was 0.1% TFA in acetontrile (ACN). A linear gradient of 85:15 to 26:74 over 22 minutes at a flow rate of 1.5 mL/min at 30° C. was used. A lipoyl compound was diluted in ethanol:water (1:1) at a concentration of 1 mg/mL and a 25 μL aliquot was injected onto the HPLC. The sample was detected at 220 nm.
The initial procedure used to formulate (R)Lip-EA-OH consisted of the following sequence: • 1. Neutralize solid (R)Lip-EA-OH by treatment with aqueous sodium bicarbonate or sodium hydroxide; • 2. Dilute with water and saline to near the final volume and concentration; and • 3. Adjust pH and add water to final volume and concentration.
This formulation procedure was used effectively to prepare formulation from multiple lots of (R)Lip-EA-OH that were synthesized at scales below 50 g. As the synthetic process was scaled-up, however, partial polymerization of (R)Lip-EA-OH was observed during formulation. […]
Since (R)Lip-EA-OH was converted to the corresponding bis-sodium salt in situ during formulation, a procedure for synthesizing the bis-sodium salt of (R)Lip-EA-OH was examined. […] The isolated polymer was treated with the reducing agent dithiothreitol (DTT), and the resulting sample was analyzed by HPLC. […]

[2] = system: patients with stable coronary artery disease undergoing elective stent placement by PCI; test: Randomized placebo-controlled study of single IV dose in patients undergoing elective stent placement by PCI (CK-MB, Troponin-T); assay type: in vivo, human; details: for Troponin-T (ng/mL) - Change from baseline (FAP population), Mean / Troponin-T (ng/mL) - Change from baseline (FAP population), Median / Troponin-T (ng/mL), Mean / Troponin-T (ng/mL), Median: Day 1 (24 hours)
Description: A prospective, multi-center, blinded, randomized, placebo-controlled study to evaluate single dose regimens of a 10 mg/mL (R)Lip-EA-OH formulation for IV administration or single dose placebo in patients with stable coronary artery disease undergoing elective stent placement by PCI meeting all the eligibility criteria was conducted. The (R)Lip-EA-OH formulation was made in accordance with Example 3 and was administered at one of three doses: 0.8 mg/kg, 1.6 mg/kg and 2.4 mg/kg. The primary objective was to assess the safety of the (R)Lip-EA-OH formulation, ascertained by measuring the changes in CK-MB values up to 24 hours after the last balloon inflation. The secondary objective was to evaluate reduction of myocardial injury associated with stent PCI, as determined by serial measurements of cardiac biomarkers and as determined by continuous and serial ECG readings.
The primary outcome measure was the change in CK-MB at 24 hours after the last balloon inflation and it served as a surrogate marker for myocardial injury considered for safety and efficacy. CK-MB levels were measured on Day 1 at 0, 6, 12, 18, and 24 hours after the last balloon inflation.
The maximum serum concentration of CK-MB (Cmax) is calculated by subtracting the baseline value from the maximum concentration of CK-MB measured at any time point. CK-MB Cmax is correlated to the extent of myocardial injury associated with the PCI. The greatest Cmax value observed was in the placebo group.

[3] = system: myocardial damage associated with percutaneous coronary intervention; details: human trial, Kates et al. 2014; cited from earlier work
[4] = 2.4 mg/kg dose group compared with other groups
[5] = 0.8, 1.6 or 2.4 mg/kg versus placebo, following PCI

C[C@H](NC(=O)[C@H](CCC(=O)O)NC(=O)CCCC[C@@H]1CCSS1)C(=O)O [(R)Lip-EA-OH, α-N—[(R)-1,2-diothiolane-3-pentanoyl]-L-glutamyl-L-alanine]
Polymer based upon HPLC area counts ([1]; after formulation by the initial procedure (solid neutralized, then diluted), FIG. 1): > 20% | Polymer by HPLC area count analysis ([1]; initially, before formulation): < 0.1% | CK-MB (ng/mL) - Change from Baseline, Mean ([2]; 0.8 mg/kg single IV dose of 10 mg/mL formulation, 6 hr after last balloon inflation): 0.12 ng/mL | CK-MB (ng/mL) - Change from Baseline, Mean ([2]; 0.8 mg/kg single IV dose of 10 mg/mL formulation, 12 hr after last balloon inflation): 1.63 ng/mL | CK-MB (ng/mL) - Change from Baseline, Mean ([2]; 0.8 mg/kg single IV dose of 10 mg/mL formulation, 18 hr after last balloon inflation): 1.87 ng/mL | CK-MB (ng/mL) - Change from Baseline, Mean ([2]; 0.8 mg/kg single IV dose of 10 mg/mL formulation, 24 hr after last balloon inflation): 1.80 ng/mL | Troponin-T (ng/mL) - Change from baseline (FAP population), Mean ([2]; 0.8 mg/kg): 0.041 ng/mL | Troponin-T (ng/mL) - Change from baseline (FAP population), Median ([2]; 0.8 mg/kg): 0.000 ng/mL | Troponin-T (ng/mL), Mean ([2]; 0.8 mg/kg): 0.042 ng/mL | Troponin-T (ng/mL), Median ([2]; 0.8 mg/kg): 0.000 ng/mL | CK-MB (ng/mL) - Change from Baseline, Mean ([2]; 1.6 mg/kg single IV dose of 10 mg/mL formulation, 6 hr after last balloon inflation): 0.76 ng/mL | CK-MB (ng/mL) - Change from Baseline, Mean ([2]; 1.6 mg/kg single IV dose of 10 mg/mL formulation, 12 hr after last balloon inflation): 1.95 ng/mL | CK-MB (ng/mL) - Change from Baseline, Mean ([2]; 1.6 mg/kg single IV dose of 10 mg/mL formulation, 18 hr after last balloon inflation): 2.55 ng/mL | CK-MB (ng/mL) - Change from Baseline, Mean ([2]; 1.6 mg/kg single IV dose of 10 mg/mL formulation, 24 hr after last balloon inflation): 2.54 ng/mL | Troponin-T (ng/mL) - Change from baseline (FAP population), Mean ([2]; 1.6 mg/kg): 0.068 ng/mL | Troponin-T (ng/mL) - Change from baseline (FAP population), Median ([2]; 1.6 mg/kg): 0.000 ng/mL | Troponin-T (ng/mL), Mean ([2]; 1.6 mg/kg): 0.066 ng/mL | Troponin-T (ng/mL), Median ([2]; 1.6 mg/kg): 0.000 ng/mL | CK-MB Cmax as an indicator of injury [2, 4]: least amount of injury | Efficacy markers of periprocedural injury (changes in Troponin-T, CK-MB AUC0-24, Cmax of CK-MB) [2, 4]: lowest | CK-MB (ng/mL) - Change from Baseline, Mean ([2]; 2.4 mg/kg single IV dose of 10 mg/mL formulation, 6 hr after last balloon inflation): -0.10 ng/mL | CK-MB (ng/mL) - Change from Baseline, Mean ([2]; 2.4 mg/kg single IV dose of 10 mg/mL formulation, 12 hr after last balloon inflation): 0.10 ng/mL | CK-MB (ng/mL) - Change from Baseline, Mean ([2]; 2.4 mg/kg single IV dose of 10 mg/mL formulation, 18 hr after last balloon inflation): 0.30 ng/mL | CK-MB (ng/mL) - Change from Baseline, Mean ([2]; 2.4 mg/kg single IV dose of 10 mg/mL formulation, 24 hr after last balloon inflation): 0.44 ng/mL | Troponin-T (ng/mL) - Change from baseline (FAP population), Mean ([2]; 2.4 mg/kg): 0.018 ng/mL | Troponin-T (ng/mL) - Change from baseline (FAP population), Median ([2]; 2.4 mg/kg): 0.000 ng/mL | Troponin-T (ng/mL), Mean ([2]; 2.4 mg/kg): 0.019 ng/mL | Troponin-T (ng/mL), Median ([2]; 2.4 mg/kg): 0.000 ng/mL | Maximum CK-MB change from baseline (FIG. 3) [2, 5]: less myocardial injury than patients in the placebo group | Troponin T change from baseline in the full analysis population (FIG. 4) [2, 5]: less myocardial injury than patients in the placebo group | Efficacy in reducing myocardial injury / cardioprotective action ([2]; patients undergoing stent PCI, 0.8, 1.6 or 2.4 mg/kg): demonstrated efficacy in reducing the myocardial injury | Protection against myocardial damage associated with percutaneous coronary intervention [3]: statistically significant protection
